Numbered stars: 1 amine (or outer) side, 2 acyl side, 3 side chain; on linkers, the order of the positions; unused ones are H or OH. Bridge positions count the residues as written; N and C are the ends. Square brackets hold non-standard residues; d marks the D form. Peptide text beside a SMILES is read from it. CH2 = C([*:1])[*:2]
Assays:
[1] = molecular target: T1, GDP-loaded KRAS^G12D (Homo sapiens, UniProt P01116, G12D); assay: TR-FRET competitive binding assay using KRAS G12D loaded with GDP; details: competition with 500 nM FAM-labeled tracer; relative binding, EC50 right-shifted compared to KD
T1 construct: (AAs 1 to 169 plus a 4xGly motif appended to the N-; His-SUMO (N, cleaved yes); made in house; host or cells: E. coli Rosetta 2 (DE3)

[2] = system: pERK in KRAS^G12C, KRAS^G12V and KRAS^G12D cancer lines; assay: Cellular phospho-ERK assay in panel of KRAS mutant cancer lines; assay type: cell-based
Experimental: For the latter, this included HEK293 cells (Fig. 4C), a cell line that has no dependency on RAS for cell proliferation.[21]
Ratio of pERK vs total ERK in
Penicillin/Streptomycin (Gibco 15140-122).
A375 cells were seeded at a
membranes were measured by LDH release assay.
according to manufacturer’s protocol.

[3] = system: AsPC-1, SK-CO-1, NCI-H358 and NCI-H2122 cells; assay: CellTiter-Glo 2.0 cell viability assay, KRAS mutant lines; assay type: cell-based; details: AsPC-1, SK-CO-1, NCI-H358, NCI-H2122; 120 h
Experimental: (§1) Prism software (GraphPad, San Diego, CA).
(§2) according to the manufacturer’s protoco l.
(§3) time of 0.15 second per well.
(§4) AMG510 was prepared internally from
(§5) Cells were cultured and seeded

[4] = system: A375 cells; assay: CellTiter-Glo 2.0 cell viability assay, A375; assay type: cell-based; details: 120 h
Experimental: as §1, §2, §3, §4, §5

[5] = system: extended cell panel incl. HEK293 cells; assay: CellTiter-Glo cell viability assay (extended cell panel); assay type: cell-based
Excerpt: Table S2: Cell culture conditions and seeding densities for 5-day CellTiter- Glo® cell viability assay on extended 1 6 cell panel.
Cell Line Vendor Catalog Description Complete g rowth m e d i um Seeding density […]
Capan-1 ATCC HTB-79 pancreas, adenocarcinoma IMDM+20%FBS 7 00
CFPAC-1 ATCC CRL-19 18 pancreas, ductal adenocarcinoma; cystic fibrosis IMDM+10%FBS 6 00 […]
MiaPaCa-2 ATCC CRL-14 20 pancreas, pancreatic Carcinoma DMEM+10%FBS 6 00 NCI-H358 ATCC CRL-58 07 lung, non-small cell lung cancer,bronchioalveolar RPMI1640+10%FBS […]
Panc 10.05 ATCC CRL-25 47 pancreas, adenocarcinoma RPMI1640 + 20 Units/ml human […]
SK-CO-1 ATCC HTB-39 colon, colorectal adenocarcinoma EMEM+10%FBS 3 00 […]
SW4 80 ATCC CCL-22 8 colon, adenocarcinoma Leibovitz's L-15
Prism software (GraphPad, San Diego, CA). […]
according to the manufacturer’s protoco l. […]
as §3, §4
Cells were cultured and seeded […]
the manufacturer’s protocol. […]
integration time of 0.1 second per well. […]
indicated peptides the next day.

[6] = system: A375 and SK-MEL-28 cells vs AsPC-1 cells; assay: Live-cell fluorescence imaging of FAM-labelled peptides; assay type: cell-based; details: A375 and SK-MEL-28 compared to AsPC-1
[7] = system: pERK in NCI-H358 (heterozygous KRAS^G12C) cells; assay: Cellular phospho-ERK assay in NCI-H358 cells with and without EGF; details: 20 nM EGF stimulation

Q: `CC[C@H](C)[C@@H]1NC(=O)[C@H](Cc2ccc(O)cc2)NC(=O)[C@H](C)NC(=O)[C@@H]2CCCN2C(=O)[C@H](NC(=O)[C@H](CCCNC(=N)N)NC(=O)[C@H](CCCNC(=N)N)NC(C)=O)CSCSC[C@@H](C(=O)N[C@@H](CCCNC(=N)N)C(=O)N[C@@H](CCCNC(=N)N)C(N)=O)NC(=O)[C@H](C(C)C)NC(=O)[C@@H]2CCCN2C(=O)[C@H](CC(=O)O)NC(=O)[C@H](Cc2ccc(O)cc2)NC(=O)[C@H](CO)NC1=O` [Compound 6] (Ac-RR[dC]PAYISYDPVCRR-NH2; linker 3-13 via CH2) was tested. Which EC50 [1] did it give?
A: The EC50 was over 48.1 µM.

Q: For `CC[C@H](C)[C@@H]1NC(=O)[C@H](Cc2ccc(O)cc2)NC(=O)[C@H](CC(C)C)NC(=O)[C@@H]2CCCN2C(=O)[C@H](NC(=O)[C@@H](CCCNC(=N)N)NC(=O)[C@@H](CCCNC(=N)N)NC(=O)[C@@H](CCCNC(=N)N)NC(=O)[C@@H](CCCNC(=N)N)NC(=O)[C@H](CCCCN=[N+]=[N-])NC(C)=O)CSCSC[C@@H](C(=O)N[C@H](CCCNC(=N)N)C(=O)N[C@H](CCCNC(=N)N)C(=O)N[C@H](CCCNC(=N)N)C(=O)N[C@H](CCCNC(=N)N)C(N)=O)NC(=O)[C@H](C(C)C)NC(=O)[C@@H]2CCCN2C(=O)[C@H](CC(=O)O)NC(=O)[C@H](Cc2ccc(O)cc2)NC(=O)[C@](C)(CO)NC1=O` [MP-3995], which “pERK inhibition across KRAS mutant cancer lines” value [2] is on record?
A: The value was “low micromolar range”.

Q: And the “inhibition of cell proliferation in KRAS mutant lines” value [3]?
A: The value was “inhibitory effects on cell proliferation”.

Q: What about the “cell growth inhibition in A375” value [4] of the same compound?
A: Its value is “lack of cell growth inhibition”.

Q: And the “sensitivity of HEK293 cell proliferation” value ([5]; HEK293, no dependency on RAS)?
A: The value was “insensitive”.

Q: And the “number of KRAS mutant cell lines with inhibited proliferation” value ([5]; extended panel, 120 h)?
A: The value was 8 out of 13.

Q: For `CC[C@H](C)[C@@H]1NC(=O)[C@H](Cc2ccc(O)cc2)NC(=O)[C@H](CC(C)C)NC(=O)[C@@H]2CCCN2C(=O)[C@H](NC(=O)[C@@H](CCCNC(=N)N)NC(=O)[C@@H](CCCNC(=N)N)NC(=O)[C@@H](CCCNC(=N)N)NC(=O)[C@@H](CCCNC(=N)N)NC(=O)c2ccc3c(c2)C(=O)OC32c3ccc(O)cc3Oc3cc(O)ccc32)CSCSC[C@@H](C(=O)N[C@H](CCCNC(=N)N)C(=O)N[C@H](CCCNC(=N)N)C(=O)N[C@H](CCCNC(=N)N)C(=O)N[C@H](CCCNC(=N)N)C(N)=O)NC(=O)[C@H](C(C)C)NC(=O)[C@@H]2CCCN2C(=O)[C@H](CC(=O)O)NC(=O)[C@H](Cc2ccc(O)cc2)NC(=O)[C@H](CO)NC1=O` [MP-8996], which “cell entry of FAM-labeled peptide in BRAF mutant cells” value [6] is on record?
A: The value was “roughly equivalent amounts compared to AsPC-1 cells”.

Q: With `C=CC(=O)N1CCN(c2nc(OC[C@@H]3CCCN3C)nc3c2CCN(c2cccc4cccc(C)c24)C3)C[C@@H]1CC#N` [MRTX-1257] as the compound, how does the “potency shift in pERK in the presence of EGF, NCI-H358” value [7] read?
A: The value was 2 fold.

From publication PMC8672774, “Discovery of cell active macrocyclic peptides with on-target inhibition of KRAS signaling” (Chemical Science, 2021)
